# Measured values from PubChem BioAssay (NCI).
#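 Method: 48-hour compound exposure of cells in 96-well plates, five concentrations, linear interpolation of endpoints. Abbreviation: GI50, concentration required for 50% inhibition of growth. The concentration for full growth arrest is given as TGI.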
# Key:
# Experiment in all cases: DTP human tumour cell line panel, 48 h
# [1] = system: 786-0 renal
# [2] = system: A498 renal
# [3] = system: A549 NSCLC
# [4] = system: ACHN renal
# [5] = system: BT-549 breast
# [6] = system: CAKI-1 renal
# [7] = system: CCRF-CEM leukemia
# [8] = system: COLO 205 colon
# [9] = system: DU-145 prostate
# [10] = system: EKVX NSCLC
# [11] = system: HCC-2998 colon
# [12] = system: HCT-116 colon
# [13] = system: HCT-15 colon
# [14] = system: HL-60(TB) leukemia
# [15] = system: HOP-62 NSCLC
# [16] = system: HOP-92 NSCLC
# [17] = system: HS 578T breast
# [18] = system: HT29 colon
# [19] = system: IGROV1 ovarian
# [20] = system: K-562 leukemia
# [21] = system: KM12 colon
# [22] = system: LOX IMVI melanoma
# [23] = system: M14 melanoma
# [24] = system: MALME-3M melanoma
# [25] = system: MCF7 breast
# [26] = system: MDA-MB-231 breast
# [27] = system: MDA-MB-435
# [28] = system: MOLT-4 leukemia
# [29] = system: NCI-H226 lung
# [30] = system: NCI-H23 lung
# [31] = system: NCI-H460 lung
# [32] = system: NCI-H522 lung
# [33] = system: NCI/ADR-RES ovarian
# [34] = system: OVCAR-3 ovarian
# [35] = system: OVCAR-4 ovarian
# [36] = system: OVCAR-5 ovarian
# [37] = system: OVCAR-8 ovarian
# [38] = system: PC-3 prostate
# [39] = system: RPMI-8226 leukemia
# [40] = system: SF-268 CNS
# [41] = system: SF-295 CNS
# [42] = system: SF-539 CNS
# [43] = system: SK-MEL-2 melanoma
# [44] = system: SK-MEL-28 melanoma
# [45] = system: SK-MEL-5 melanoma
# [46] = system: SK-OV-3 ovarian
# [47] = system: SN12C renal
# [48] = system: SNB-19 CNS
# [49] = system: SNB-75 CNS
# [50] = system: SR leukemia
# [51] = system: SW-620 colon
# [52] = system: T-47D breast
# [53] = system: TK-10 renal
# [54] = system: U251 CNS
# [55] = system: UACC-257 melanoma
# [56] = system: UACC-62 melanoma
# [57] = system: UO-31 renal
compound,measurement,setting,value
COc1ccc(-c2cnc(NC(=O)CCCCCCNC(=O)C(O)(O)C(F)(F)F)s2)cc1,GI50,[1],1270 nM
same,TGI,[1],15.1 µM
same,GI50,[2],288 nM
same,TGI,[2],1530 nM
same,GI50,[3],1380 nM
same,TGI,[3],11.5 µM
same,GI50,[4],1010 nM
same,TGI,[4],4.19 µM
same,GI50,[5],1810 nM
same,TGI,[5],12.9 µM
same,GI50,[6],975 nM
same,TGI,[6],7.45 µM
same,GI50,[7],1340 nM
same,TGI,[7],> 30.8 µM
same,GI50,[8],540 nM
same,TGI,[8],1280 nM
same,GI50,[9],1030 nM
same,TGI,[9],7.67 µM
same,GI50,[10],1970 nM
same,TGI,[10],> 30.8 µM
same,GI50,[11],1360 nM
same,TGI,[11],4.53 µM
same,GI50,[12],540 nM
same,TGI,[12],4.41 µM
same,GI50,[13],1600 nM
same,TGI,[13],8.01 µM
same,GI50,[14],1400 nM
same,TGI,[14],> 30.8 µM
same,GI50,[15],1140 nM
same,TGI,[15],> 30.8 µM
same,GI50,[16],561 nM
same,TGI,[16],2110 nM
same,GI50,[17],952 nM
same,TGI,[17],10.5 µM
same,GI50,[18],946 nM
same,TGI,[18],> 30.8 µM
same,GI50,[19],987 nM
same,TGI,[19],5.31 µM
same,GI50,[20],709 nM
same,TGI,[20],> 30.8 µM
same,GI50,[21],1080 nM
same,TGI,[21],5.48 µM
same,GI50,[22],678 nM
same,TGI,[22],1760 nM
same,GI50,[23],1450 nM
same,TGI,[23],> 30.8 µM
same,GI50,[24],1020 nM
same,TGI,[24],3.36 µM
same,GI50,[25],1310 nM
same,TGI,[25],> 30.8 µM
same,GI50,[26],719 nM
same,TGI,[26],2500 nM
same,GI50,[27],1000 nM
same,TGI,[27],10.2 µM
same,GI50,[28],1100 nM
same,TGI,[28],> 30.8 µM
same,GI50,[29],2200 nM
same,TGI,[29],12 µM
same,GI50,[30],1230 nM
same,TGI,[30],8.08 µM
same,GI50,[31],735 nM
same,TGI,[31],5.79 µM
same,GI50,[32],908 nM
same,TGI,[32],4.56 µM
same,GI50,[33],1610 nM
same,TGI,[33],8.78 µM
same,GI50,[34],635 nM
same,TGI,[34],2110 nM
same,GI50,[35],2110 nM
same,TGI,[35],> 30.8 µM
same,GI50,[36],907 nM
same,TGI,[36],5.5 µM
same,GI50,[37],967 nM
same,TGI,[37],6.85 µM
same,GI50,[38],1210 nM
same,TGI,[38],> 30.8 µM
same,GI50,[39],857 nM
same,TGI,[39],> 30.8 µM
same,GI50,[40],1130 nM
same,TGI,[40],6.26 µM
same,GI50,[41],742 nM
same,TGI,[41],1820 nM
same,GI50,[42],1370 nM
same,TGI,[42],> 30.8 µM
same,GI50,[43],1010 nM
same,TGI,[43],4.49 µM
same,GI50,[44],1370 nM
same,TGI,[44],> 30.8 µM
same,GI50,[45],921 nM
same,TGI,[45],2860 nM
same,GI50,[46],863 nM
same,TGI,[46],2270 nM
same,GI50,[47],1210 nM
same,TGI,[47],10.6 µM
same,GI50,[48],1280 nM
same,TGI,[48],9.44 µM
same,GI50,[49],1760 nM
same,TGI,[49],> 30.8 µM
same,GI50,[50],601 nM
same,TGI,[50],> 30.8 µM
same,GI50,[51],623 nM
same,TGI,[51],2360 nM
same,GI50,[52],864 nM
same,TGI,[52],3.78 µM
same,GI50,[53],481 nM
same,TGI,[53],> 30.8 µM
same,GI50,[54],862 nM
same,TGI,[54],3.78 µM
same,GI50,[55],1570 nM
same,TGI,[55],24.6 µM
same,GI50,[56],662 nM
same,TGI,[56],1880 nM
same,GI50,[57],904 nM
same,TGI,[57],3.98 µM
